ChEMBL document CHEMBL1144090, “Antinociceptive activity of niga-ichigoside F1 from Rubus imperialis” (1999)
The source made the active and inactive calls. The calls are words filed in the database; no cut-off is given here.

Experiments:
Mus musculus [1] = test: Antinociceptive activity in Swiss mouse assessed as reduction of formalin-induced inflammatory pain at 1 to 10 mg/kg, ip administered 60 mins before formalin challenge measured during 15 to 30 mins relative to control; type: functional; conditions: route intraperitoneal
Mus musculus [2] = test: Antinociceptive activity in ip dosed Swiss mouse assessed as reduction of formalin-induced neurogenic pain administered 60 mins before formalin challenge measured during 0 to 5 mins; type: functional
Mus musculus [3] = test: Antinociceptive activity in ip dosed Swiss mouse assessed as reduction of acetic acid-induced abdominal constructions administered 30 mins before acetic acid challenge measured for 20 mins; type: functional; conditions: Abdomen, read-out: ID50 (the source's name)
Mus musculus [4] = test: Antinociceptive activity in ip dosed Swiss mouse assessed as reduction of formalin-induced inflammatory pain administered 60 mins before formalin challenge measured during 15 to 30 mins; type: functional; conditions: read-out: ID50 (the source's name)
Mus musculus [5] = test: Antinociceptive activity in Swiss mouse assessed as reduction of acetic acid-induced abdominal constructions at 1 to 10 mg/kg, ip administered 30 mins before acetic acid challenge measured after 20 mins relative to control; type: functional, Abdomen; conditions: dose mg/kg 1-10; route intraperitoneal
Mus musculus [6] = test: Antinociceptive activity in Swiss mouse assessed as reduction of formalin-induced neurogenic pain at 1 to 10 mg/kg, ip administered 60 mins before formalin challenge measured during 0 to 5 mins relative to control; type: functional; conditions: route intraperitoneal

SMILES	inhibition (INH) (Mus musculus [1]) [%]	Activity (Mus musculus [2])	ED50 (Mus musculus [3]) [µmol/kg]	ED50 (Mus musculus [4]) [µmol/kg]	inhibition (INH) (Mus musculus [5]) [%]	inhibition (INH) (Mus musculus [6]) [%]	ED50 (Mus musculus [2]; read-out: ID50 (the source's name)) [µmol/kg]
CC(=O)Oc1ccccc1C(=O)O [ASPIRIN]	88	inactive	133	123	83		
CC(=O)Nc1ccc(O)cc1 [ACETAMINOPHEN]	85	inactive	125	120	88		
C[C@@H]1CC[C@]2(C(=O)O[C@@H]3O[C@H](CO)[C@@H](O)[C@H](O)[C@H]3O)CC[C@]3(C)C(=CC[C@@H]4[C@@]5(C)C[C@@H](O)[C@H](O)[C@@](C)(CO)[C@@H]5CC[C@]43C)[C@@H]2[C@]1(C)O [NIGAICHIGOSIDE F1]	94		4.6	4.1	67.6	70.4	3.9
